According to patent US20230414657A1, “Novel compositions for neutralizing toxic effects of hydrogen peroxide in living cells or tissues” (Dzala LLC, priority 2020, published 2023):

Legend:
[1] = system: living organism treated with Paraquat (PQ2+); conditions: cited from earlier work
C. elegans [2] = test: Oxygen consumption rate (OCR), Seahorse XFe96; assay type: in vivo; conditions: 100 mM H2O2 plus supplement (10 mM GA, 100 μM glycine or 500 μM L-serine)
Method: Oxygen consumption of worms was measured with a Seahorse XFe96 system (Seahorse Bioscience, North Billerica, MA), as previously described^4. L3 larvae of the different strains were grown on plates or in liquid culture and supplemented for 2-4 days as described for each experiment. After removing bacteria and debris, approximately 100 worms were pipetted into each well of a 96-well Seahorse XF^e assay plate and OCR was measured until it stabilized. Then, 3 subsequent measurements were made at 6.5-min intervals. Finally, the exact number of worms in each well was counted and used for normalization. A small number of abnormal readings were also filtered out at this stage. On average, 7-8 wells (technical replicates) were used for each condition. Normalized OCR values were averaged for the last 3 measurements for each strain and condition. Four biological replicates were analyzed for each condition.

C. elegans [3] = assay type: in vivo; conditions: 100 mM H2O2 plus supplement (10 mM GA, 100 μM glycine or 500 μM L-serine)
Method: Mitochondrial staining was performed as described previously^3,4. Briefly, L1 worms were grown on plate or in liquid culture for 2-3 days at 15° C. […] Next, the excess dye was washed off with M9 buffer and worms were incubated in 100 μl M9 for 30 min to eliminate the excess dye in the gut. Finally, worms were paralyzed with 0.5 mM Levamizol (Sigma-Aldrich), placed on slides covered with a thin layer of 2% agarose on top of which the coverslip (22×22 mm, Menzel-Glaser no. 1) was fixed using nail polish. We used a Zeiss LSM 700 inverted laser scanning confocal microscope and a Zeiss LCI Plan-Neofluar 63×/1.3 ImmCorr DIC M27 objective to image mitochondria (Zeiss, Germany). MitoTracker Red CMXRos was excited at 555 nm and the emission above 560 nm was acquired by the second PMT. Optical sections at 0.1×0.1×0.5 μm^3 x-y-z resolution were collected in […]. Final images were adjusted for intensity and merged in Fiji. No non-linear adjustments were made.

[4] = system: gox-1, ghpr-1, gcst-1, mel-32 and gcs-1 genes; test: Quantitative real-time PCR of glycolate pathway genes; assay type: in vivo, C. elegans
Method: The differential expression of F41E6.5 (gox-1), C31C9.2 (ghpr-1), gcst-1, mel-32 and gcs-1 genes was measured using qRT-PCR. ˜5000 L1 N2 worms were exposed to each condition for 3 days at 15° Cas described above and then washed three times with H2O. Total RNA was isolated using the RNeasy Mini Kit (Qiagen) and equal amounts of all samples were reverse transcribed with SuperScript Ill (Invitrogen) using oligo(dT) 12-18 primers. cDNA quality was tested using standard PCR. qRT-PCR was performed using pre-designed TaqMan Gene Expression Assay (ThermoFischer Scientific) with at least three samples in triplicates. For the relative quantification of gene expression levels, the 2^−ΔΔCT method and results were normalized to the expression level of the cdc-42 gene. Expression levels were averaged over technical and biological replicates, […]

O=C(O)CO [GA, glycolic acid]
Animal growth ([1]; PQ2+ exposure): unable to restore | OCR (Oxygen consumption Rate) ([1]; PQ2+ exposure): unable to restore | Mitochondrial membrane potential ([1]; Paraquat (PQ2+) treated): can restore | Respiration rate (OCR) (C. elegans [2]): able to restore both traits | Mitochondrial membrane potential (MMP) (C. elegans [3]): prevented this effect | Expression of gox-1, ghpr-1, mel-32 and gcs-1 ([4]; glycolate supplementation): moderately induced | Expression of gcst-1 ([4]; peroxide or glycolate supplementation): not significantly altered
